# Measurements taken from patent US6472348B1, “Pyridone derivatives and herbicides” (Kumiai Chemical Industry Co., Ltd., priority 1996, dated 2002).
# Tested on: barnyardgrass (Ec)
# Test: Test Example 1: herbicidal effects by paddy field soil treatment;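 also: grade of growth control; 5 = at least 90%; 4 = 70 to 90%; 3 = 50 to 70%; 2 = 30 to 50%; 1 = 10 to 30%; 0 = under 10%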
# Type: in vivo
# Details: 100 g of the active ingredient per 10 ares, 21st day after the application, index 0-5 of Table 47
# Experimental: (§1) (Test on Herbicidal Effects by Paddy Field Soil Treatment)
# (§2) In a plastic pot (surface area: 100 cm^2) filled with paddy field soil, barnyardgrass (Ec), monochoria (Mo) and bulrush (Sc) were sown after puddling and leveling, and flooded to a water depth of 3 cm. […] The dose was 100 g of the active ingredient per 10 ares. The plants were then cultured in a green house, and the evaluation of the herbicidal effects was conducted on the 21st day after the application in accordance with the standards as identified in Table 47.
row,Compound,Herbicidal effects Ec
1,COCc1cc2c(-c3ccc(C(F)(F)F)n(C)c3=O)c(Cl)cc(Cl)c2o1 [Compound 4-13],5

# Tested on: bulrush (Sc)
# Test: as above
# Type: in vivo
# Details: 100 g of the active ingredient per 10 ares, 21st day after the application, index 0-5 of Table 47
# Experimental: as §1, §2
row,Compound,Herbicidal effects Sc
1,COCc1cc2c(-c3ccc(C(F)(F)F)n(C)c3=O)c(Cl)cc(Cl)c2o1 [Compound 4-13],5

# Tested on: monochoria (Mo)
# Test: as above
# Type: in vivo
# Details: 100 g of the active ingredient per 10 ares, 21st day after the application, index 0-5 of Table 47
# Experimental: as §1, §2
row,Compound,Herbicidal effects Mo
1,COCc1cc2c(-c3ccc(C(F)(F)F)n(C)c3=O)c(Cl)cc(Cl)c2o1 [Compound 4-13],5

# Tested on: Digitaria ciliaris (Di)
# Test: Test Example 2: herbicidal effects by upland field soil treatment;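 also: grade of growth control; 5 = at least 90%; 4 = 70 to 90%; 3 = 50 to 70%; 2 = 30 to 50%; 1 = 10 to 30%; 0 = under 10%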
# Type: in vivo
# Details: 100 g of the active ingredient per 10 ares, evaluated on the 21st day after application
# From the text: (§3) (Test on Herbicidal Effects by Upland Field Soil Treatment)
row,Compound,Herbicidal effects Di
1,Cn1cc(-c2ccc(Cl)cc2F)c(=O)cc1C(F)(F)F [Compound 6-2],5
2,CCCN1C(=O)COc2cc(F)c(-c3ccc(C(F)(F)F)n(C)c3=O)cc21 [Compound 2-10],5
3,Cn1c(C(F)(F)F)ccc(-c2cc3c(cc2F)OCC(=O)N3CC=CCl)c1=O [Compound 2-14],5
4,CCCOC(C)c1cc2c(-c3ccc(C(F)(F)F)n(C)c3=O)c(F)cc(Cl)c2o1 (stereo not drawn) [Compound 4-37],5
5,COCc1cc2c(-c3ccc(C(F)(F)F)n(C)c3=O)c(Cl)cc(Cl)c2o1 [Compound 4-13],5

# Tested on: barnyardgrass (Ec)
# Test: as above
# Type: in vivo
# Details: 100 g of the active ingredient per 10 ares, evaluated on the 21st day after application
# From the text: as §3
row,Compound,Herbicidal effects Ec
1,Cn1cc(-c2ccc(Cl)cc2F)c(=O)cc1C(F)(F)F [Compound 6-2],4
2,CCCN1C(=O)COc2cc(F)c(-c3ccc(C(F)(F)F)n(C)c3=O)cc21 [Compound 2-10],5
3,Cn1c(C(F)(F)F)ccc(-c2cc3c(cc2F)OCC(=O)N3CC=CCl)c1=O [Compound 2-14],5
4,CCCOC(C)c1cc2c(-c3ccc(C(F)(F)F)n(C)c3=O)c(F)cc(Cl)c2o1 (stereo not drawn) [Compound 4-37],5
5,COCc1cc2c(-c3ccc(C(F)(F)F)n(C)c3=O)c(Cl)cc(Cl)c2o1 [Compound 4-13],5

# Tested on: common lambsquarters (Ch)
# Test: as above
# Type: in vivo
# Details: 100 g of the active ingredient per 10 ares, evaluated on the 21st day after application
# From the text: as §3
row,Compound,Herbicidal effects Ch
1,Cn1cc(-c2ccc(Cl)cc2F)c(=O)cc1C(F)(F)F [Compound 6-2],5
2,CCCN1C(=O)COc2cc(F)c(-c3ccc(C(F)(F)F)n(C)c3=O)cc21 [Compound 2-10],5
3,Cn1c(C(F)(F)F)ccc(-c2cc3c(cc2F)OCC(=O)N3CC=CCl)c1=O [Compound 2-14],5
4,CCCOC(C)c1cc2c(-c3ccc(C(F)(F)F)n(C)c3=O)c(F)cc(Cl)c2o1 (stereo not drawn) [Compound 4-37],5
5,COCc1cc2c(-c3ccc(C(F)(F)F)n(C)c3=O)c(Cl)cc(Cl)c2o1 [Compound 4-13],5

# Tested on: pale smartweed (Po)
# Test: as above
# Type: in vivo
# Details: 100 g of the active ingredient per 10 ares, evaluated on the 21st day after application
# From the text: as §3
row,Compound,Herbicidal effects Po
1,Cn1cc(-c2ccc(Cl)cc2F)c(=O)cc1C(F)(F)F [Compound 6-2],5
2,CCCN1C(=O)COc2cc(F)c(-c3ccc(C(F)(F)F)n(C)c3=O)cc21 [Compound 2-10],5
3,Cn1c(C(F)(F)F)ccc(-c2cc3c(cc2F)OCC(=O)N3CC=CCl)c1=O [Compound 2-14],5
4,CCCOC(C)c1cc2c(-c3ccc(C(F)(F)F)n(C)c3=O)c(F)cc(Cl)c2o1 (stereo not drawn) [Compound 4-37],5
5,COCc1cc2c(-c3ccc(C(F)(F)F)n(C)c3=O)c(Cl)cc(Cl)c2o1 [Compound 4-13],5

# Tested on: rice flatsedge (Ci)
# Test: as above
# Type: in vivo
# Details: 100 g of the active ingredient per 10 ares, evaluated on the 21st day after application
# From the text: as §3
row,Compound,Herbicidal effects Ci
1,Cn1cc(-c2ccc(Cl)cc2F)c(=O)cc1C(F)(F)F [Compound 6-2],5
2,CCCN1C(=O)COc2cc(F)c(-c3ccc(C(F)(F)F)n(C)c3=O)cc21 [Compound 2-10],5
3,Cn1c(C(F)(F)F)ccc(-c2cc3c(cc2F)OCC(=O)N3CC=CCl)c1=O [Compound 2-14],5
4,CCCOC(C)c1cc2c(-c3ccc(C(F)(F)F)n(C)c3=O)c(F)cc(Cl)c2o1 (stereo not drawn) [Compound 4-37],5
5,COCc1cc2c(-c3ccc(C(F)(F)F)n(C)c3=O)c(Cl)cc(Cl)c2o1 [Compound 4-13],5

# Tested on: slender amaranth (Am)
# Test: as above
# Type: in vivo
# Details: 100 g of the active ingredient per 10 ares, evaluated on the 21st day after application
# From the text: as §3
row,Compound,Herbicidal effects Am
1,Cn1cc(-c2ccc(Cl)cc2F)c(=O)cc1C(F)(F)F [Compound 6-2],5
2,CCCN1C(=O)COc2cc(F)c(-c3ccc(C(F)(F)F)n(C)c3=O)cc21 [Compound 2-10],5
3,Cn1c(C(F)(F)F)ccc(-c2cc3c(cc2F)OCC(=O)N3CC=CCl)c1=O [Compound 2-14],5
4,CCCOC(C)c1cc2c(-c3ccc(C(F)(F)F)n(C)c3=O)c(F)cc(Cl)c2o1 (stereo not drawn) [Compound 4-37],5
5,COCc1cc2c(-c3ccc(C(F)(F)F)n(C)c3=O)c(Cl)cc(Cl)c2o1 [Compound 4-13],5

# Tested on: Diaitaria ciliaris (Di)
# Test: Test Example 3: herbicidal effects by upland field foliage treatment
# Type: in vivo
# Design: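 grade of growth control; 5 = at least 90%; 4 = 70 to 90%; 3 = 50 to 70%; 2 = 30 to 50%; 1 = 10 to 30%; 0 = under 10%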
# Details: 100 g active ingredient per 10 ares, evaluated 14th day after treatment
# Experimental: (§4) (Test on Herbicidal Effects by Upland Field Foliage Treatment)
# (§5) In a plastic pot (surface area: 120 cm^2) filled with sand, barnyardgrass (Ec), Diaitaria ciliaris (Di), pale smartweed (Po), slender amaranth (Am), common lambsquarters (Ch) and rice flatsedge (Ci) were sown and covered with soil and were cultured in a green house for 2 weeks. […] The plants were then cultured in the green house, and the evaluation of the herbicidal effects was conducted on the 14th day after the treatment in accordance with the standards as identified in Table 47. Symbol—represents “not tested”.
row,Compound,Herbicidal effects Di
1,Cn1cc(-c2ccc(Cl)cc2F)c(=O)cc1C(F)(F)F [Compound 6-2],5
2,CCCN1C(=O)COc2cc(F)c(-c3ccc(C(F)(F)F)n(C)c3=O)cc21 [Compound 2-10],5
3,Cn1c(C(F)(F)F)ccc(-c2cc3c(cc2F)OCC(=O)N3CC=CCl)c1=O [Compound 2-14],5
4,CCCOC(C)c1cc2c(-c3ccc(C(F)(F)F)n(C)c3=O)c(F)cc(Cl)c2o1 (stereo not drawn) [Compound 4-37],5

# Tested on: barnyardgrass (Ec)
# Test: as above
# Type: in vivo
# Design: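 grade of growth control; 5 = at least 90%; 4 = 70 to 90%; 3 = 50 to 70%; 2 = 30 to 50%; 1 = 10 to 30%; 0 = under 10%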
# Details: 100 g active ingredient per 10 ares, evaluated 14th day after treatment
# Experimental: as §4, §5
row,Compound,Herbicidal effects Ec
1,Cn1cc(-c2ccc(Cl)cc2F)c(=O)cc1C(F)(F)F [Compound 6-2],4
2,CCCN1C(=O)COc2cc(F)c(-c3ccc(C(F)(F)F)n(C)c3=O)cc21 [Compound 2-10],5
3,Cn1c(C(F)(F)F)ccc(-c2cc3c(cc2F)OCC(=O)N3CC=CCl)c1=O [Compound 2-14],5
4,CCCOC(C)c1cc2c(-c3ccc(C(F)(F)F)n(C)c3=O)c(F)cc(Cl)c2o1 (stereo not drawn) [Compound 4-37],5

# Tested on: common lambsquarters (Ch)
# Test: as above
# Type: in vivo
# Design: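 grade of growth control; 5 = at least 90%; 4 = 70 to 90%; 3 = 50 to 70%; 2 = 30 to 50%; 1 = 10 to 30%; 0 = under 10%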
# Details: 100 g active ingredient per 10 ares, evaluated 14th day after treatment
# Experimental: as §4, §5
row,Compound,Herbicidal effects Ch
1,Cn1cc(-c2ccc(Cl)cc2F)c(=O)cc1C(F)(F)F [Compound 6-2],5
2,CCCN1C(=O)COc2cc(F)c(-c3ccc(C(F)(F)F)n(C)c3=O)cc21 [Compound 2-10],5
3,Cn1c(C(F)(F)F)ccc(-c2cc3c(cc2F)OCC(=O)N3CC=CCl)c1=O [Compound 2-14],5
4,CCCOC(C)c1cc2c(-c3ccc(C(F)(F)F)n(C)c3=O)c(F)cc(Cl)c2o1 (stereo not drawn) [Compound 4-37],5

# Tested on: pale smartweed (Po)
# Test: as above
# Type: in vivo
# Design: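 grade of growth control; 5 = at least 90%; 4 = 70 to 90%; 3 = 50 to 70%; 2 = 30 to 50%; 1 = 10 to 30%; 0 = under 10%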
# Details: 100 g active ingredient per 10 ares, evaluated 14th day after treatment
# Experimental: as §4, §5
row,Compound,Herbicidal effects Po
1,Cn1cc(-c2ccc(Cl)cc2F)c(=O)cc1C(F)(F)F [Compound 6-2],5
2,CCCN1C(=O)COc2cc(F)c(-c3ccc(C(F)(F)F)n(C)c3=O)cc21 [Compound 2-10],5
3,Cn1c(C(F)(F)F)ccc(-c2cc3c(cc2F)OCC(=O)N3CC=CCl)c1=O [Compound 2-14],5
4,CCCOC(C)c1cc2c(-c3ccc(C(F)(F)F)n(C)c3=O)c(F)cc(Cl)c2o1 (stereo not drawn) [Compound 4-37],5

# Tested on: rice flatsedge (Ci)
# Test: as above
# Type: in vivo
# Design: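 grade of growth control; 5 = at least 90%; 4 = 70 to 90%; 3 = 50 to 70%; 2 = 30 to 50%; 1 = 10 to 30%; 0 = under 10%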
# Details: 100 g active ingredient per 10 ares, evaluated 14th day after treatment
# Experimental: as §4, §5
row,Compound,Herbicidal effects Ci
1,Cn1cc(-c2ccc(Cl)cc2F)c(=O)cc1C(F)(F)F [Compound 6-2],5
2,CCCN1C(=O)COc2cc(F)c(-c3ccc(C(F)(F)F)n(C)c3=O)cc21 [Compound 2-10],5
3,Cn1c(C(F)(F)F)ccc(-c2cc3c(cc2F)OCC(=O)N3CC=CCl)c1=O [Compound 2-14],5
4,CCCOC(C)c1cc2c(-c3ccc(C(F)(F)F)n(C)c3=O)c(F)cc(Cl)c2o1 (stereo not drawn) [Compound 4-37],5

# Tested on: slender amaranth (Am)
# Test: as above
# Type: in vivo
# Design: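 grade of growth control; 5 = at least 90%; 4 = 70 to 90%; 3 = 50 to 70%; 2 = 30 to 50%; 1 = 10 to 30%; 0 = under 10%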
# Details: 100 g active ingredient per 10 ares, evaluated 14th day after treatment
# Experimental: as §4, §5
row,Compound,Herbicidal effects Am
1,Cn1cc(-c2ccc(Cl)cc2F)c(=O)cc1C(F)(F)F [Compound 6-2],5
2,CCCN1C(=O)COc2cc(F)c(-c3ccc(C(F)(F)F)n(C)c3=O)cc21 [Compound 2-10],5
3,Cn1c(C(F)(F)F)ccc(-c2cc3c(cc2F)OCC(=O)N3CC=CCl)c1=O [Compound 2-14],5
4,CCCOC(C)c1cc2c(-c3ccc(C(F)(F)F)n(C)c3=O)c(F)cc(Cl)c2o1 (stereo not drawn) [Compound 4-37],5
